Residues, ends and D or L forms follow the SMILES beside them. *: point of attachment. Cbz = O=C(OCc1ccccc1)*
Experiments:
[1] = target: T1, bovine serum albumin (BSA) (Bos taurus, UniProt P02769); test: Ninhydrin test with BSA standard to evaluate AcGG-NHS labeling efficiency
T1 construct: purchased VWR
Description: To test the amine labeling efficiency of AcGG-NHS, three groups of samples were prepared—Blank: 100 μL of 9 M urea/1×PBS, Control: 0.1 mg BSA (5 μL of 20 mg/mL BSA) and 95 μL of 9 M urea/1×PBS, Test: 0.1 mg BSA (5 μL of 20 mg/mL BSA) and 95 μL of 9 M urea/1×PBS. First, samples in each groups were reduced with a final concentration of 5 mM TCEP and alkylated with a final concentration of 5 mM iodoacetamide at room temperature with shaking in dark for 30 min. Then, samples in the Test group were derivatized with AcGG-NHS following the procedure described below. Each group was followed by a reaction with ⅕ the volume of Ninhydrin reagent solution (0.35 g ninhydrin in 100 mL EtOH) at 85° C. with gentle stirring for 5 min. Absorbance of each sample was measured at 577 nm using NanoDrop spectrophotometer (Fisher).
Ten μg of proteins were dried in a Speed-Vac and resuspended in 10 μL of 9 M urea/PBS with pH adjusted to ˜8.5. AcGG-NHS stock solution was prepared by dissolving AcGG-NHS in 50% ACN/50% H2O mixture at a concentration of 100 mg/mL. One μL of AcGG-NHS stock solution was added to each sample and the mixture was vortexed for 45 min. The labeling was repeated for another two times. The reaction was quenched with 5% hydroxylamine (pH=6.0, 1.5 M) for 15 min. Each sample was diluted 6× with PBS and proteins were digested with trypsin for overnight at 37° C. […]

[2] = system: ubiquitination sites in histone-enriched fractions of 293T cells; test: IBAQ-Ub site-specific stoichiometric analysis of known Ub sites on acid-extracted histones from 293T cells treated with DMSO or MG132; format: cell-based, human
Description: 293T cells were treated with 5 μM MG132 or the equal volume of DMSO for 12 hours. Histone extraction was performed as described previously (D. Shechter, et al., Nat Protoc 2007, 2, 1445-1457). Briefly, the cells were harvested by trypsin digestion. The cell pellets were washed with cold PBS and then lysed in 0.5 mL Extraction Buffer (PBS+0.5% Triton X-100 (v/v)) with protease inhibitor cocktail. After centrifuge, the supernatant was discarded and the pellet was washed with Extraction Buffer again to remove residual supernatant solution in pellet. The pellet was re-suspended in 0.4 ml 0.4 N H2SO4 for acid extraction. After overnight incubation at 4° C., the supernatant was extracted and proteins were precipitated with a final concentration of 20% TCA (v/v), followed by cold acetone wash. The protein pellet was air dried and protein concentration was measured by the Bradford assay after solubilizing the pellet with water.
Ten μg of proteins were dried in a Speed-Vac and resuspended in 10 μL of 9 M urea/PBS with pH adjusted to ˜8.5. AcGG-NHS stock solution was prepared by dissolving AcGG-NHS in 50% ACN/50% H2O mixture at a concentration of 100 mg/mL. One μL of AcGG-NHS stock solution was added to each sample and the mixture was vortexed for 45 min. The labeling was repeated for another two times. The reaction was quenched with 5% hydroxylamine (pH=6.0, 1.5 M) for 15 min. Each sample was diluted 6× with PBS and proteins were digested with trypsin for overnight at 37° C. (enzyme-to-substrate ratio of 1:100 (w/w)). When a second digestion was needed, another protease (Glu-C or Asp-N) was added (enzyme to substrate ratio of 1:100 w/w) for overnight digestion at 37° C. Following digestion, peptides were desalted and then resuspended in 10 μL of 9M urea/PBS at a pH ˜8.5. Heavy Ac—NHS stock solution was prepared by dissolving heavy Ac—NHS in ACN at a concentration of 100 mg/mL. One μL of heavy Ac—NHS stock solution was added to each sample for 45-min labeling. The labeling was repeated for two more times and the reaction was quenched with 5% hydroxylamine (pH=6.0, 1.5 M) for 15 min. The peptides were desalted with stage tips (C18) prior to LCMS analysis (J. Rappsilber, et al., Nat Protoc 2007, 2, 1896-1906).
Mass spectrometry data were collected using an Orbitrap Fusion mass spectrometer (Thermo Scientific) with a Top-12 method. Samples were resolubilized in HPLC buffer A (0.1% formic acid in water, v/v) and injected onto a self-packed reversed-phase capillary HPLC column (15 cm×100 μm, ReproSil-Pur Basic C18, 2.5 μm, Dr. Maisch GmbH). Peptides were separated by a Proxeon Easy nLC 1000 Nano-UPLC system (Thermo Scientific) at a flow rate of 200 nL/min with a 56 min gradient of 7-32% HPLC buffer B (0.1% formic acid in acetonitrile, v/v). The Orbitrap Fusion mass spectrometer (Thermo Scientific) was operated in a positive polarity mode with ion transfer tube temp of 275° C. Precursor ions were acquired in Orbitrap with a resolution 60,000 at 200 m/z and a mass range of 380-1800 m/z. Dynamic exclusion was enabled with an exclusion duration of 15 s and a mass tolerance of ±25 ppm. Fragment ions were acquired in the linear ion trap with an isolation window of 1.6 m/z and high energy collisional dissociation (HCD) of 35%.
Mass spectra were processed with MaxQuant software (version 1.5.3.12) (J. Cox, M. Mann, Nat Biotechnol 2008, 26, 1367-1372). […]

[3] = sites quantified in both DMSO and MG132 treated samples, histone-enriched chromatin fractions of 293T cells

T1 sequence (P02769 25-607): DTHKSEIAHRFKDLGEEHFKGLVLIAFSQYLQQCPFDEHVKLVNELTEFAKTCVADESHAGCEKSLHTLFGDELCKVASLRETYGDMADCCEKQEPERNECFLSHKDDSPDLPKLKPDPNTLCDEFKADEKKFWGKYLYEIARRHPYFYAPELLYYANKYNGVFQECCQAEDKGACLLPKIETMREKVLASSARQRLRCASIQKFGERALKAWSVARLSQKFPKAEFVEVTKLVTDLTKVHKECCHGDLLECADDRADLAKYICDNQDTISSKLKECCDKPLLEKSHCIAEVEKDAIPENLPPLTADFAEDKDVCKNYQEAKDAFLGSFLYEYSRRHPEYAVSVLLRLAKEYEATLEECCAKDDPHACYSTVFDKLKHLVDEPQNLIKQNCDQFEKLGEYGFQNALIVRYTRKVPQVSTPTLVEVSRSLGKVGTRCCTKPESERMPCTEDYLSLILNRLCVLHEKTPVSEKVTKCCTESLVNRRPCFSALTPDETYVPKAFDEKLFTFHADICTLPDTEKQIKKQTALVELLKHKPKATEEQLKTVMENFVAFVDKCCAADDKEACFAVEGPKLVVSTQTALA

Ninhydrin reactivity on BSA after labeling ([1]; BSA after AcGG-NHS labeling, FIG. 9B-9C) | reactivity to derivatize amino groups ([1]; Ninhydrin test, BSA standard, absorbance at 577 nm) | SMILES | abundance of histone H2B K117/K120 ubiquitination (Ub stoichiometry) ([2]; 293T cells, 5 μM MG132 12 hours, acid-extracted histones, stoichiometry 0.91% without MG132) | K48 polyubiquitin linkage stoichiometry on extracted histones ([2]; 293T cells, 5 μM MG132 12 hours, DMSO control 0.85%) [%] | increase of K48 ubiquitination stoichiometry versus DMSO control ([2]; 293T cells, MG132 treatment, extracted histones) | sites with decreased ubiquitination upon treatment [2, 3] | sites with increased Ub abundance upon treatment [2, 3]
complete loss of Ninhydrin reactivity | high reactivity | CC(=O)NCC(=O)NCC(=O)ON1C(=O)CCC1=O [AcGG-NHS, Acetyl glycylglycine-N-hydroxysuccinamide] (HELM PEPTIDE1{[ac].G.G.[O=C1CCC(=O)N1O[*:1]]}$$$$V2.0) |  |  |  |  | 
 |  | CC(C)C[C@@H](C=O)NC(=O)[C@H](CC(C)C)NC(=O)[C@H](CC(C)C)NC(=O)OCc1ccccc1 [MG132] (Cbz-Leu-Leu-Leu-aldehyde) | below the detection limit | 2.93 | more than tripled | 27 % of the sites | 72 % of the sites
